From ChEMBL document CHEMBL5537119 (Eur J Med Chem, 2024)
pIC50: −log10 of the molar value. The source made the active and inactive calls. The calls are words filed in the database; no cut-off is given here.

How the values were obtained:
THP-1 [1] = assay: Antiproliferative activity against human THP-1 cells assessed as reduction in cell viability at 100 uM incubated for 72 hrs by MTT assay relative to control; format: functional
Histone deacetylase 3 = Histone deacetylase 3 (Homo sapiens, UniProt O15379); assay: Inhibition of HDAC3 (unknown origin)
Chain of Histone deacetylase 3 (O15379 whole entry): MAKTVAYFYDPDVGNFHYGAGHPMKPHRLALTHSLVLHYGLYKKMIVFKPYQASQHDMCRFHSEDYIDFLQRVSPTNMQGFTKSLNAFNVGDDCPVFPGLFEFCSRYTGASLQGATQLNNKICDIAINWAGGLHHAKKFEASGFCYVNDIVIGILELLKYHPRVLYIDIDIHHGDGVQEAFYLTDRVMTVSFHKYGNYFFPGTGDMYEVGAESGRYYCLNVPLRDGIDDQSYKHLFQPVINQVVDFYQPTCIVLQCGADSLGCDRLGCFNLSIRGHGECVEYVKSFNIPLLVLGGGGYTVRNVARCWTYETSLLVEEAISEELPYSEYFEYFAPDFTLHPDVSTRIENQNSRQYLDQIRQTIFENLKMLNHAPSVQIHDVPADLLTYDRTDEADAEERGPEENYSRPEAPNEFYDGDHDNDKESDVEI

Histone deacetylase 11 = target: T1, Histone deacetylase 11 (Homo sapiens, UniProt Q96DB2); assay: Inhibition of HDAC11 (unknown origin)
T1 sequence (Q96DB2 whole entry): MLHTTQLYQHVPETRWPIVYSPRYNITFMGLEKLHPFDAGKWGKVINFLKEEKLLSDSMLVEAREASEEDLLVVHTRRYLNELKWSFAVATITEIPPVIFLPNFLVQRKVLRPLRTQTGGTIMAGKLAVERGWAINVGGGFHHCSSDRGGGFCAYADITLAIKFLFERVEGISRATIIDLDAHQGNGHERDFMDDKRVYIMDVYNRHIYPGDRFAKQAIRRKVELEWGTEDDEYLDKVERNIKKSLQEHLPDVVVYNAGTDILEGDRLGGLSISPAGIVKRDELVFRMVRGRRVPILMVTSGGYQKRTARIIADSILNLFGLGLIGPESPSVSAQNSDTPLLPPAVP

THP-1 [2] = assay: Inhibition of Class I/IIb HDAC in human THP-1 cells at 100 uM preincubated for 18 hrs followed by substrate addition and measured after 3 hrs by fluorescence based microplate reader assay relative to control; format: cell-based; conditions: time 21.0 hrs
THP-1 [3] = assay: Synergistic induction of apoptosis in human THP-1 cells assessed as increase in subG1 population at 5.7 uM incubated for 48 hrs in the presence of 7.9 nM bortezomib by Propidium iodide staining based flow cytometric analysis; format: functional, cell-based
CAL-27 [4] = assay: Antiproliferative activity against human CAL-27 cells overexpressing HDAC4 assessed as inhibition of cell growth incubated for 72 hrs by MTT assay; format: functional, cell-based; conditions: CAL-27, 72 h
Histone deacetylase 5 = Histone deacetylase 5 (Homo sapiens, UniProt Q9UQL6); assay: Inhibition of HDAC5 (unknown origin)
Chain of Histone deacetylase 5 (Q9UQL6 whole entry): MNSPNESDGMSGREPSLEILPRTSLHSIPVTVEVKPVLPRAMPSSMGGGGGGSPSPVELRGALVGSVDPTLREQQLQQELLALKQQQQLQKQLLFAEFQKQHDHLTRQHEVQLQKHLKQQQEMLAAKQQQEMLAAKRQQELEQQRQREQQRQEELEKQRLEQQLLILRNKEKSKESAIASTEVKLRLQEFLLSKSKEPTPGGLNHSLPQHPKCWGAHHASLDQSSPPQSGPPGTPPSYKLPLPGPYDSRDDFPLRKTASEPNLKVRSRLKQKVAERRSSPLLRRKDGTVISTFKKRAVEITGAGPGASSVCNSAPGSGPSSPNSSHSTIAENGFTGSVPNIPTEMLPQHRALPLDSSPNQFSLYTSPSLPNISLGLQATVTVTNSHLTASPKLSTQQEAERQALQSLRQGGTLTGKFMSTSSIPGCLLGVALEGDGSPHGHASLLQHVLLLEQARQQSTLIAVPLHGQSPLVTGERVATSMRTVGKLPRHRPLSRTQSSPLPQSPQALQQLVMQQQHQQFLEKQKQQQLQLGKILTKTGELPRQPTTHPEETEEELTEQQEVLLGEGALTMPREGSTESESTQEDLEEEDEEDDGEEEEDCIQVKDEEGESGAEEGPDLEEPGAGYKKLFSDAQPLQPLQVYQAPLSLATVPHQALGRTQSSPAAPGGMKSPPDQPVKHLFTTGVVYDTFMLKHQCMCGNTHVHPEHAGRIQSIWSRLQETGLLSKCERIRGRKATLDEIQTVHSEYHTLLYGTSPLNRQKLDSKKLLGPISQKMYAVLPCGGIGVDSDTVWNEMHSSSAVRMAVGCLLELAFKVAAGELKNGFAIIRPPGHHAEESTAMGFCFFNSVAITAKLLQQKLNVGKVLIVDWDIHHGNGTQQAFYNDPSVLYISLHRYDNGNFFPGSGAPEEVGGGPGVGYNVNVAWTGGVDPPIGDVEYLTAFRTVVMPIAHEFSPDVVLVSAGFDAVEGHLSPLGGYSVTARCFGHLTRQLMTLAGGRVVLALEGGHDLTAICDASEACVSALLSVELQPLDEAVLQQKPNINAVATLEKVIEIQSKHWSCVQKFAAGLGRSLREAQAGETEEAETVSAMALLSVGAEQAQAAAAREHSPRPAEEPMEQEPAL

THP-1 [5] = assay: Inhibition of Class IIa/8 HDAC in human THP-1 cells at 100 uM preincubated for 18 hrs followed by substrate addition and measured after 3 hrs by fluorescence based microplate reader assay relative to control; format: cell-based; conditions: time 21.0 hrs, values are per cent of control
THP-1 [6] = assay: Induction of apoptosis in human THP-1 cells assessed as subG1 population at 5.7 uM incubated for 48 hrs by Propidium iodide staining based flow cytometric analysis; format: functional, cell-based
CAL-27 [7] = assay: Antiproliferative activity against human CAL-27 cells without HDAC4 expression assessed as inhibition of cell growth incubated for 72 hrs by MTT assay; format: functional, cell-based; conditions: CAL-27, 72 h
THP-1 [8] = assay: Induction of apoptosis in human THP-1 cells assessed as caspase3/7 activation at 5.7 uM incubated for 48 hrs by Hoechst 33342 staining based assay; format: functional, cell-based
Histone deacetylase 1 = Histone deacetylase 1 (Homo sapiens, UniProt Q13547); assay: Inhibition of HDAC1 (unknown origin)
Chain of Histone deacetylase 1 (Q13547 whole entry): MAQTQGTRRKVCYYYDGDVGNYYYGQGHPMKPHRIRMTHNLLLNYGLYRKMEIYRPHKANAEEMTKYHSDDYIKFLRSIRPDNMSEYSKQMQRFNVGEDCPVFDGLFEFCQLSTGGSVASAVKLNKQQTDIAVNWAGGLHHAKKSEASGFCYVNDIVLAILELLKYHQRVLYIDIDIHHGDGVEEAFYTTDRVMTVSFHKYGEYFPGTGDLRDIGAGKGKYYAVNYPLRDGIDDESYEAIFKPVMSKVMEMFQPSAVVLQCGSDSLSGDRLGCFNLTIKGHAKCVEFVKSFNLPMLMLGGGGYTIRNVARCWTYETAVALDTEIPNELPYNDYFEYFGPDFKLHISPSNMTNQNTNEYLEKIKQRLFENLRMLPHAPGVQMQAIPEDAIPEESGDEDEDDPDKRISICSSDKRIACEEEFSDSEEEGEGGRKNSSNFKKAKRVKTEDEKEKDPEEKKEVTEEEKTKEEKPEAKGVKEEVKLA

THP-1 [9] = assay: cells; conditions: Homo sapiens, THP-1, 72 h
Description: Antiproliferative activity against human THP-1 cells assessed as inhibition of cell growth incubated for 72 hrs by MTT assay

[10] = Inhibition of Class I/IIb HDAC in human THP-1 cells preincubated for 18 hrs followed by substrate addition and measured after 3 hrs by fluorescence based microplate reader assay; format: cell-based
THP-1 [11] = assay: Synergistic induction of apoptosis in human THP-1 cells assessed as increase in caspase3/7 activation at 5.7 uM incubated for 48 hrs in the presence of 7.9 nM bortezomib by Hoechst 33342 staining based assay; format: functional, cell-based
[12] = Inhibition of Class IIa/8 HDAC in human THP-1 cells preincubated for 18 hrs followed by substrate addition and measured after 3 hrs by fluorescence based microplate reader assay; format: cell-based
Histone deacetylase 4 = Histone deacetylase 4 (Homo sapiens, UniProt P56524); assay: Inhibition of human recombinant TEV-8His-tagged HDAC4 (648 to 1057 residues) expressed in Escherichia coli (DE3) Rosetta cells using Boc-Lys-(Tfa)-AMC as substrate preincubated for 5 mins followed by substrate addition and measured after 90 mins by fluorescence based microplate reader analysis
Chain of Histone deacetylase 4 (P56524 whole entry, the tested form may be a part): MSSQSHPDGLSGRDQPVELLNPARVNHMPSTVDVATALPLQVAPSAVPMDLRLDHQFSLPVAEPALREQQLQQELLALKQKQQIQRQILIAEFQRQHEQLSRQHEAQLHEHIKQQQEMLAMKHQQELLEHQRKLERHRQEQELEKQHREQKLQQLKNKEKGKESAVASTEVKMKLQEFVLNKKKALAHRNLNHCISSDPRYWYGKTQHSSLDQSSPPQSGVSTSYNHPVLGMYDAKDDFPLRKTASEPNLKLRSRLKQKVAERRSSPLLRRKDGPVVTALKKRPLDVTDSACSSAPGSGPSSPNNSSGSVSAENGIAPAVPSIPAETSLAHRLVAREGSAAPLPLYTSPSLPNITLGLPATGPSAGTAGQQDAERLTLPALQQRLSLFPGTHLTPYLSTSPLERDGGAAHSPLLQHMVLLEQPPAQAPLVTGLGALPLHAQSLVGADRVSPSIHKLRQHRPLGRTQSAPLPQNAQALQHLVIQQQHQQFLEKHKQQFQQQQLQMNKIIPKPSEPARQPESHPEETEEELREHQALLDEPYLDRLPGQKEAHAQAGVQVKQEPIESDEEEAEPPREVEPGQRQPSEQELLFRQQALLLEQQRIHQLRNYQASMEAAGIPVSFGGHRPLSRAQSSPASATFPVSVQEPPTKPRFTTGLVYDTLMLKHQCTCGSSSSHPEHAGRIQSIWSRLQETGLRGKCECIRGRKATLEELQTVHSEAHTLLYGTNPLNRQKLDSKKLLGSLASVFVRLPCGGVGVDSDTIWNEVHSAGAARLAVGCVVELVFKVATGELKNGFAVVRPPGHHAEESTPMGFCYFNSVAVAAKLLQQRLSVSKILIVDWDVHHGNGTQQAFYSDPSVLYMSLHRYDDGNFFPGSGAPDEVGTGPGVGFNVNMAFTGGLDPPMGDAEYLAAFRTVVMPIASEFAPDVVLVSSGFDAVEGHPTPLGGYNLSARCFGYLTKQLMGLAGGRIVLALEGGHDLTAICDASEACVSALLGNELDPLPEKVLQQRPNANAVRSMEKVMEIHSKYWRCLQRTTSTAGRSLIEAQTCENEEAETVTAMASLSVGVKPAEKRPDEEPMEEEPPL

Histone deacetylase 8 = target: T2, Histone deacetylase 8 (Homo sapiens, UniProt Q9BY41); assay: Inhibition of human recombinant HDAC8 using Boc-Lys-(Tfa)-AMC as substrate preincubated for 5 mins followed by substrate addition and measured after 90 mins by fluorescence based microplate reader analysis
T2 sequence (Q9BY41 whole entry): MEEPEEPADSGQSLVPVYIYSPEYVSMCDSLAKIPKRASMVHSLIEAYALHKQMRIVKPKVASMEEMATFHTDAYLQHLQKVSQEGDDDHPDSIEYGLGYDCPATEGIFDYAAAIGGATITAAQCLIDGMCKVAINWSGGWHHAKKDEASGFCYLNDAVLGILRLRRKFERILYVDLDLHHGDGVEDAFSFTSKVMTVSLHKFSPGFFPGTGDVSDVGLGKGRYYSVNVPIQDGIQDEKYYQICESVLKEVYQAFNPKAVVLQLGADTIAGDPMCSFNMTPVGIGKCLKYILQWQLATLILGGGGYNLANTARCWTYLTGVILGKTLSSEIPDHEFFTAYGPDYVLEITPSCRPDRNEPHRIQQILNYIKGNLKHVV

Histone deacetylase 2 = Histone deacetylase 2 (Homo sapiens, UniProt Q92769); assay: Inhibition of human recombinant HDAC2 using Boc-Lys(Ac)-AMC as substrate preincubated for 5 mins followed by substrate addition and measured after 90 mins by fluorescence based microplate reader analysis
Chain of Histone deacetylase 2 (Q92769 whole entry): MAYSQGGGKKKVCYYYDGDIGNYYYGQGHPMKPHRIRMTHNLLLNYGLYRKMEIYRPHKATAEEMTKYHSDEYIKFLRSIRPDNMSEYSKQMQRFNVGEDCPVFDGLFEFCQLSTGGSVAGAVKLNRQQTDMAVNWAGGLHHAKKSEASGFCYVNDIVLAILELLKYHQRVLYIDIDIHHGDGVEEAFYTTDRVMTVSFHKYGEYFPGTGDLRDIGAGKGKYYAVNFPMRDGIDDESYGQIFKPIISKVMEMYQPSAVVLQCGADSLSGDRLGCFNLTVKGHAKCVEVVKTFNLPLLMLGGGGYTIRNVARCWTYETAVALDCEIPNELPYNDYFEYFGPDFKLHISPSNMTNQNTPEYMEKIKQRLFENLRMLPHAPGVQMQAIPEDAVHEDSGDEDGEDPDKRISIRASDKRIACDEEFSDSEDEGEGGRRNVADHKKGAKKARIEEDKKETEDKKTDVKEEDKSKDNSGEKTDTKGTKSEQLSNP

[13] = target: T3, Protein deacetylase HDAC6 (Homo sapiens, UniProt Q9UBN7); assay: Inhibition of human recombinant HDAC6 using Boc-Lys(Ac)-AMC as substrate preincubated for 5 mins followed by substrate addition and measured after 90 mins by fluorescence based microplate reader analysis
T3 sequence (Q9UBN7 whole entry): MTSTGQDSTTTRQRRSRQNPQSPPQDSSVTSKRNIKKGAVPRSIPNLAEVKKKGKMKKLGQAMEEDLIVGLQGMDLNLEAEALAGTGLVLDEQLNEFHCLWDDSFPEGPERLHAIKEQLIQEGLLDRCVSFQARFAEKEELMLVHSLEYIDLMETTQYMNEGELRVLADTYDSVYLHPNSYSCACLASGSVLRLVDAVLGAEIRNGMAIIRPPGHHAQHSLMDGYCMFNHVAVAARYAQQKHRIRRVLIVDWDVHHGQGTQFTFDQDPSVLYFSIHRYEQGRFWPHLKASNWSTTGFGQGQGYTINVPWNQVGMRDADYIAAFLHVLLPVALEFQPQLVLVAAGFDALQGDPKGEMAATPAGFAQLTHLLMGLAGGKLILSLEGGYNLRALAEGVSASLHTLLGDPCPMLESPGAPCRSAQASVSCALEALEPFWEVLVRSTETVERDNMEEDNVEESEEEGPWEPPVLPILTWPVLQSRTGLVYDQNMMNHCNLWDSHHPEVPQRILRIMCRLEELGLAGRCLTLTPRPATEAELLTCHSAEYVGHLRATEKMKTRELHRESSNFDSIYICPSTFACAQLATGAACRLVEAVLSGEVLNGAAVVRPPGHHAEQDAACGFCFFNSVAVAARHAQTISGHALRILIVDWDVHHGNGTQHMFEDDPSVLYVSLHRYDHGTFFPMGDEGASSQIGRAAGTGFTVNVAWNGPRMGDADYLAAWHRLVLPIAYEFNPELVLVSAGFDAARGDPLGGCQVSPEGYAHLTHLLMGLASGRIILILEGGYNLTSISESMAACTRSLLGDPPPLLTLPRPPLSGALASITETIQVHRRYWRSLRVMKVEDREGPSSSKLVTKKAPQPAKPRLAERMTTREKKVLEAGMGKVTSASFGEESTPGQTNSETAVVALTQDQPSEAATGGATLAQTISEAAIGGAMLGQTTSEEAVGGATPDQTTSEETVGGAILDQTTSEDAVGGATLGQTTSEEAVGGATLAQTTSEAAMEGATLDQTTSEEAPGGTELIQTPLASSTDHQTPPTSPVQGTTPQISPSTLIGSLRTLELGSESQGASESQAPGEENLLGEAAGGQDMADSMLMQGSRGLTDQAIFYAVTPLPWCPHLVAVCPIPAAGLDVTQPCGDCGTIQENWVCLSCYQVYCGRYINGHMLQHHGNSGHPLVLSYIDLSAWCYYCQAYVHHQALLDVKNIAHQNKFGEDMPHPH

THP-1 [14] = assay: Induction of apoptosis in human THP-1 cells assessed as caspase3/7 activation at 5 uM incubated for 48 hrs by Hoechst 33342 staining based assay; format: functional, cell-based
THP-1 [15] = assay: Induction of apoptosis in human THP-1 cells assessed as subG1 population at 5 uM incubated for 48 hrs by Propidium iodide staining based flow cytometric analysis; format: functional, cell-based
THP-1 [16] = assay: Synergistic effect on p21 protein expression in human THP-1 cells assessed as increase in p21 protein expression level at 5 uM incubated for 24 hrs in the presence of 7.9 nM bortezomib by Western blot analysis; format: functional, cell-based
THP-1 [17] = assay: Effect on p21 protein expression in human THP-1 cells assessed as increase in p21 protein expression level at 5 uM incubated for 24 hrs by Western blot analysis; format: functional, cell-based
THP-1 [18] = assay: Synergistic induction of apoptosis in human THP-1 cells assessed as increase in subG1 population at 5 uM incubated for 48 hrs in the presence of 7.9 nM bortezomib by Propidium iodide staining based flow cytometric analysis; format: functional, cell-based
THP-1 [19] = assay: Synergistic induction of apoptosis in human THP-1 cells assessed as increase in caspase3/7 activation at 5 uM incubated for 48 hrs in the presence of 7.9 nM bortezomib by Hoechst 33342 staining based assay; format: functional, cell-based

SMILES	pIC50 (THP-1 [9])	pIC50 [10]	pIC50 [12]	pIC50 (Histone deacetylase 4)	pIC50 (Histone deacetylase 8)	pIC50 (Histone deacetylase 2)	pIC50 [13]	Activity (THP-1 [1])	inhibition (THP-1 [2])	residual activity (THP-1 [5])	also measured
O=C(CCCCCCC(=O)Nc1ccccc1)NO [VORINOSTAT]								97%			
CCN(CC)CCN(C)C(=O)c1ccc(-c2noc(C(F)(F)F)n2)cc1	< 4.00	4.85	5.90	6.70	4.97	4.46	4.77	31%	65%	98%	
O=C(NO)C(c1ccc(-c2ncc(C(F)(F)F)cn2)cc1)c1ccccc1F (stereo not given)											pIC50 (CAL-27 [4]): 4.89; pIC50 (CAL-27 [7]): 5.01
O=C(NOCCN1CCOCC1)c1ccc(-c2noc(C(F)(F)F)n2)cc1	~4.00	< 4.00	6.37	6.85	5.15	5.01	4.74	47%	41%	100%	pIC50 (Histone deacetylase 3): 5.63; pIC50 (Histone deacetylase 11): < 4.00; pIC50 (Histone deacetylase 5): 6.82; pIC50 (Histone deacetylase 1): 5.66
CCN(CC)CCCCNC(=O)c1ccc(-c2noc(C(F)(F)F)n2)cc1	~4.00	4.86	5.93	6.86	5.17	4.60	5.25	47%	73%	102%	
O=C(NCC1(c2nc(-c3ccccc3)cs2)CCOCC1)c1cccc(-c2noc(C(F)(F)F)n2)c1								100%			Activity (THP-1 [14]): inactive; Activity (THP-1 [15]): inactive; Activity (THP-1 [16]): Active; Activity (THP-1 [17]): Active; Activity (THP-1 [18]): Active; Activity (THP-1 [19]): Active
CN(Cc1ccccc1)C(=O)c1ccc(-c2noc(C(F)(F)F)n2)cc1	< 4.00	4.54	6.27	7.60	< 4.00	5.09	5.69	34%	78%	117%	pIC50 (Histone deacetylase 3): 5.16; pIC50 (Histone deacetylase 11): < 4.00; pIC50 (Histone deacetylase 5): 6.81; pIC50 (Histone deacetylase 1): 4.84

The next lines start with results.

pIC50 (THP-1 [9])	pIC50 [10]	pIC50 [12]	pIC50 (Histone deacetylase 4)	pIC50 (Histone deacetylase 8)	pIC50 (Histone deacetylase 2)	pIC50 [13]	SMILES	Activity (THP-1 [1])	inhibition (THP-1 [2])	residual activity (THP-1 [5])	also measured
~4.00	4.19	6.23					O=C(NOCCN1CCCCC1)c1ccc(-c2noc(C(F)(F)F)n2)cc1	45%	70%	101%	pIC50 (Histone deacetylase 3): 4.82; pIC50 (Histone deacetylase 11): < 4.00; Activity (THP-1 [3]): Active; pIC50 (CAL-27 [4]): 4.16; pIC50 (Histone deacetylase 5): 6.57; Activity (THP-1 [6]): inactive; pIC50 (CAL-27 [7]): 4.11; Activity (THP-1 [8]): inactive; pIC50 (Histone deacetylase 1): 4.68; Activity (THP-1 [11]): Active
~4.00		4.84	6.16	< 4.00	< 4.00	< 4.00	O=C(NCCc1c[nH]c2ccccc12)c1ccc(-c2noc(C(F)(F)F)n2)cc1	49%	64%	97%	
~4.00	< 4.00	5.26	6.03	< 4.00	< 4.00	< 4.00	CN(C)c1ccc(CNC(=O)c2ccc(-c3noc(C(F)(F)F)n3)cc2)cc1	49%	25%	103%	
< 4.00	< 4.00	5.26	5.93	4.79	4.10	4.26	CN1CCN(C(=O)c2ccc(-c3noc(C(F)(F)F)n3)cc2)CC1	39%	23%	103%	
< 4.00	< 4.00	5.19	6.12	4.14	< 4.00	4.71	CN(C(=O)c1ccc(-c2noc(C(F)(F)F)n2)cc1)c1ccccc1	33%	31%	118%	
9.00							Cc1[nH]c2ccccc2c1CCNCc1ccc(/C=C/C(=O)NO)cc1 [PANOBINOSTAT]	96%			
4.33	< 4.00	< 4.00	5.26	< 4.00	< 4.00	< 4.00	O=C(Nc1cnc2ccccc2c1)c1ccc(-c2noc(C(F)(F)F)n2)cc1	63%	0%	18%	
